Measured values as given in ChEMBL document CHEMBL1201861, “Genomics of Drug Sensitity in Cancer screening data, Wellcome Trust Sanger Institute”.

Experiments:
Assay in all cases: cells
VA-ES-BJ = type: functional, cell-based, Homo sapiens; settings: Homo sapiens, VA-ES-BJ;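 note: growth inhibition of the VA-ES-BJ cell line, read out by a cell viability assay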
Description: SANGER: Inhibition of human VA-ES-BJ cell growth in a cell viability assay.

DU-4475 = type: functional, cell-based, Homo sapiens; settings: Homo sapiens, DU-4475
Description: SANGER: Inhibition of human DU-4475 cell growth in a cell viability assay.

OCI-AML2 = type: functional, cell-based, Homo sapiens; settings: Homo sapiens, OCI-AML2;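 note: growth inhibition of OCI-AML2 cells, read out with a cell viability assay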
Description: SANGER: Inhibition of human OCI-AML2 cell growth in a cell viability assay.

HuTu80 = type: functional, cell-based, Homo sapiens, HUTU-80; settings: Homo sapiens, HuTu80;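 note: growth inhibition of HuTu80 human cells, determined with a cell viability readout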
Description: SANGER: Inhibition of human HUTU-80 cell growth in a cell viability assay.

MSTO-211H = type: functional, cell-based, Homo sapiens; settings: Homo sapiens, MSTO-211H
Description: SANGER: Inhibition of human MSTO-211H cell growth in a cell viability assay.

D-263MG = type: functional, cell-based, Homo sapiens; settings: Homo sapiens, D-263MG
Description: SANGER: Inhibition of human D-263MG cell growth in a cell viability assay.

JVM-2 = type: functional, cell-based, Homo sapiens; settings: Homo sapiens, JVM-2;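 note: growth inhibition of JVM-2 cells determined by a cell viability assay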
Description: SANGER: Inhibition of human JVM-2 cell growth in a cell viability assay.

NB12 = type: functional, cell-based, Homo sapiens; settings: Homo sapiens, NB12;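 note: growth inhibition of human NB12 cells, read out by a cell viability assay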
Description: SANGER: Inhibition of human NB12 cell growth in a cell viability assay.

HDLM-2 = type: functional, cell-based, Homo sapiens; settings: Homo sapiens, HDLM-2;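 note: cell viability assay measuring suppression of HDLM-2 proliferation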
Description: SANGER: Inhibition of human HDLM-2 cell growth in a cell viability assay.

MOLT-4 = type: functional, cell-based, Homo sapiens; settings: Homo sapiens, MOLT-4;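 note: growth inhibition of MOLT-4 cells, determined with a cell viability readout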
Description: SANGER: Inhibition of human MOLT-4 cell growth in a cell viability assay.

MV4-11 = type: functional, cell-based, Homo sapiens, MV-4-11; settings: Homo sapiens, MV4-11;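 note: cell viability readout measuring growth inhibition of human MV-4-11 cells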
Description: SANGER: Inhibition of human MV-4-11 cell growth in a cell viability assay.

SW 962 = type: functional, cell-based, Homo sapiens; settings: Homo sapiens, SW 962;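 note: growth inhibition of human SW962 cells, read out by a cell viability assay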
Description: SANGER: Inhibition of human SW962 cell growth in a cell viability assay.

SNU-5 = type: functional, cell-based, Homo sapiens; settings: Homo sapiens, SNU-5;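 note: cell viability readout used to measure growth inhibition in human NCI-SNU-5 cells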
Description: SANGER: Inhibition of human NCI-SNU-5 cell growth in a cell viability assay.

LB831-BLC = type: functional, cell-based, Homo sapiens; settings: Homo sapiens, LB831-BLC;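 note: growth inhibition of LB831-BLC cells, read out with a cell viability assay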
Description: SANGER: Inhibition of human LB831-BLC cell growth in a cell viability assay.

EM-2 = type: functional, cell-based, Homo sapiens; settings: Homo sapiens, EM-2;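 note: growth inhibition of EM-2 cells, read out with a cell viability assay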
Description: SANGER: Inhibition of human EM-2 cell growth in a cell viability assay.

LB996-RCC = type: functional, cell-based, Homo sapiens; settings: Homo sapiens, LB996-RCC
Description: SANGER: Inhibition of human LB996-RCC cell growth in a cell viability assay.

TE-1 = type: functional, cell-based, Homo sapiens; settings: Homo sapiens, TE-1;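 note: growth inhibition of the human TE-1 cell line, read out with a cell viability assay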
Description: SANGER: Inhibition of human TE-1 cell growth in a cell viability assay.

SK-N-DZ = type: functional, cell-based, Homo sapiens; settings: Homo sapiens, SK-N-DZ;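 note: growth inhibition of the cancer cell line, read out through a viability assay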
Description: SANGER: Inhibition of human SK-N-DZ cell growth in a cell viability assay.

NCI-H1395 = type: functional, cell-based, Homo sapiens; settings: Homo sapiens, NCI-H1395;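 note: cell viability assay read-out quantifying reduced proliferation of human NCI-H1395 cells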
Description: SANGER: Inhibition of human NCI-H1395 cell growth in a cell viability assay.

ACN = type: functional, cell-based, Homo sapiens; settings: Homo sapiens, ACN;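 note: growth inhibition of the human ACN cell line, read out via cell viability testing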
Description: SANGER: Inhibition of human ACN cell growth in a cell viability assay.

NMC-G1 = type: functional, cell-based, Homo sapiens; settings: Homo sapiens, NMC-G1;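 note: growth inhibition of the NMC-G1 cell line, measured with a cell viability read-out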
Description: SANGER: Inhibition of human NMC-G1 cell growth in a cell viability assay.

RS4-11 = type: functional, cell-based, Homo sapiens; settings: Homo sapiens, RS4-11;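 note: growth inhibition of RS4-11 cells, read out by a cell viability assay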
Description: SANGER: Inhibition of human RS4-11 cell growth in a cell viability assay.

UACC-257 = type: functional, cell-based, Homo sapiens; settings: Homo sapiens, UACC-257
Description: SANGER: Inhibition of human UACC-257 cell growth in a cell viability assay.

NCI-H1304 = type: functional, cell-based, Homo sapiens; settings: Homo sapiens, NCI-H1304;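 note: growth inhibition of the cancer cell line, measured in a cell viability assay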
Description: SANGER: Inhibition of human NCI-H1304 cell growth in a cell viability assay.

KS-1 = type: functional, cell-based, Homo sapiens; settings: Homo sapiens, KS-1;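 note: growth inhibition of KS-1 cells, read out with a cell viability assay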
Description: SANGER: Inhibition of human KS-1 cell growth in a cell viability assay.

CP66-MEL = type: functional, cell-based, Homo sapiens; settings: Homo sapiens, CP66-MEL;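 note: growth inhibition of CP66-MEL cells determined in a cell viability assay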
Description: SANGER: Inhibition of human CP66-MEL cell growth in a cell viability assay.

NKM-1 = type: functional, cell-based, Homo sapiens; settings: Homo sapiens, NKM-1;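 note: growth inhibition of NKM-1 cells, read out with a cell viability assay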
Description: SANGER: Inhibition of human NKM-1 cell growth in a cell viability assay.

NCI-H1155 = type: functional, cell-based, Homo sapiens; settings: Homo sapiens, NCI-H1155;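 note: cell growth inhibition measured by a viability assay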
Description: SANGER: Inhibition of human NCI-H1155 cell growth in a cell viability assay.

SH-4 = type: functional, cell-based, Homo sapiens; settings: Homo sapiens, SH-4;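 note: growth inhibition of SH-4 cells, read out with a cell viability assay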
Description: SANGER: Inhibition of human SH-4 cell growth in a cell viability assay.

TE-8 = type: functional, cell-based, Homo sapiens; settings: Homo sapiens, TE-8;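 note: growth inhibition of TE-8 cells, measured with a cell viability readout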
Description: SANGER: Inhibition of human TE-8 cell growth in a cell viability assay.

BT-474 = type: functional, cell-based, Homo sapiens; settings: Homo sapiens, BT-474
Description: SANGER: Inhibition of human BT-474 cell growth in a cell viability assay.

NTERA-2-cl-D1 = type: functional, cell-based, Homo sapiens; settings: Homo sapiens, NTERA-2-cl-D1;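 note: inhibition of cell growth, measured with a cell viability assay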
Description: SANGER: Inhibition of human NTERA-S-cl-D1 cell growth in a cell viability assay.

COLO-684 = type: functional, cell-based, Homo sapiens; settings: Homo sapiens, COLO-684
Description: SANGER: Inhibition of human COLO-684 cell growth in a cell viability assay.

TE-6 = type: functional, cell-based, Homo sapiens; settings: Homo sapiens, TE-6;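 note: growth inhibition of TE-6 cells, read out with a cell viability assay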
Description: SANGER: Inhibition of human TE-6 cell growth in a cell viability assay.

MHH-PREB-1 = type: functional, cell-based, Homo sapiens; settings: Homo sapiens, MHH-PREB-1;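 note: cell viability assay measuring inhibition of proliferation of human MHH-PREB-1 cells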
Description: SANGER: Inhibition of human MHH-PREB-1 cell growth in a cell viability assay.

697 = type: functional, cell-based, Homo sapiens; settings: Homo sapiens
Description: SANGER: Inhibition of human 697 cell growth in a cell viability assay.

KARPAS-299 = type: functional, cell-based, Homo sapiens; settings: Homo sapiens, KARPAS-299
Description: SANGER: Inhibition of human KARPAS-299 cell growth in a cell viability assay.

CAS-1 = type: functional, cell-based, Homo sapiens; settings: Homo sapiens, CAS-1;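 note: growth inhibition of CAS-1 cells, measured with a cell viability assay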
Description: SANGER: Inhibition of human CAS-1 cell growth in a cell viability assay.

ALL-PO = type: functional, cell-based, Homo sapiens; settings: Homo sapiens, ALL-PO;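 note: growth inhibition of ALL-PO cells, read out by a cell viability assay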
Description: SANGER: Inhibition of human ALL-PO cell growth in a cell viability assay.

SW 954 = type: functional, cell-based, Homo sapiens; settings: Homo sapiens, SW 954;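 note: growth inhibition of SW954 human cancer cells, read out as cell viability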
Description: SANGER: Inhibition of human SW954 cell growth in a cell viability assay.

LB2241-RCC = type: functional, cell-based, Homo sapiens; settings: Homo sapiens, LB2241-RCC;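 note: cell viability assay measuring how strongly the cultured human renal carcinoma line is prevented from growing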
Description: SANGER: Inhibition of human LB2241-RCC cell growth in a cell viability assay.

MZ7-mel = type: functional, cell-based, Homo sapiens; settings: Homo sapiens, MZ7-mel;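 note: growth inhibition of human MZ7-mel cells, measured by a cell viability assay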
Description: SANGER: Inhibition of human MZ7-mel cell growth in a cell viability assay.

no-11 = type: functional, cell-based, Homo sapiens; settings: Homo sapiens;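 note: growth inhibition of human NO-11 cells, read out with a cell viability assay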
Description: SANGER: Inhibition of human no-11 cell growth in a cell viability assay.

MEG-01 = type: functional, cell-based, Homo sapiens; settings: Homo sapiens, MEG-01;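 note: growth inhibition of MEG-01 cells, read out by a cell viability assay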
Description: SANGER: Inhibition of human MEG-01 cell growth in a cell viability assay.

SK-NEP-1 = type: functional, cell-based, Homo sapiens; settings: Homo sapiens, SK-NEP-1;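 note: growth inhibition of human SK-NEP-1 cells, read out by a cell viability assay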
Description: SANGER: Inhibition of human SK-NEP-1 cell growth in a cell viability assay.

NOS-1 = type: functional, cell-based, Homo sapiens; settings: Homo sapiens, NOS-1;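 note: growth inhibition of the human NOS-1 cell line, read out with a cell viability assay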
Description: SANGER: Inhibition of human NOS-1 cell growth in a cell viability assay.

GI-ME-N = type: functional, cell-based, Homo sapiens; settings: Homo sapiens, GI-ME-N;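 note: growth inhibition of human GI-ME-N cells, read out with a cell viability assay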
Description: SANGER: Inhibition of human GI-ME-N cell growth in a cell viability assay.

TGBC24TKB = type: functional, cell-based, Homo sapiens; settings: Homo sapiens, TGBC24TKB;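 note: growth inhibition of human TGBC24TKB cells, read out with a cell viability assay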
Description: SANGER: Inhibition of human TGBC24TKB cell growth in a cell viability assay.

Structure (SMILES): COc1cc(N2CCN(C)CC2)ccc1Nc1ncc2c(n1)N(C)c1ccccc1C(=O)N2C
- IC50 (VA-ES-BJ): > 8 µM
- IC50 (DU-4475): > 8 µM
- IC50 (OCI-AML2): 3.6 µM
- IC50 (HuTu80): > 8 µM
- IC50 (MSTO-211H): > 8 µM
- IC50 (D-263MG): > 8 µM
- IC50 (JVM-2): > 8 µM
- IC50 (NB12): > 8 µM
- IC50 (HDLM-2): > 8 µM
- IC50 (MOLT-4): > 8 µM
- IC50 (MV4-11): 1.61 µM
- IC50 (SW 962): > 8 µM
- IC50 (SNU-5): > 8 µM
- IC50 (LB831-BLC): > 8 µM
- IC50 (EM-2): > 8 µM
- IC50 (LB996-RCC): 5.37 µM
- IC50 (TE-1): > 8 µM
- IC50 (SK-N-DZ): > 8 µM
- IC50 (NCI-H1395): > 8 µM
- IC50 (ACN): > 8 µM
- IC50 (NMC-G1): > 8 µM
- IC50 (RS4-11): 3.42 µM
- IC50 (UACC-257): 7.11 µM
- IC50 (NCI-H1304): > 8 µM
- IC50 (KS-1): 5.38 µM
- IC50 (CP66-MEL): > 8 µM
- IC50 (NKM-1): > 8 µM
- IC50 (NCI-H1155): > 8 µM
- IC50 (SH-4): 1.99 µM
- IC50 (TE-8): > 8 µM
- IC50 (BT-474): > 8 µM
- IC50 (NTERA-2-cl-D1): 4.56 µM
- IC50 (COLO-684): > 8 µM
- IC50 (TE-6): > 8 µM
- IC50 (MHH-PREB-1): 3.84 µM
- IC50 697: 0.654 µM
- IC50 (KARPAS-299): > 8 µM
- IC50 (CAS-1): > 8 µM
- IC50 (ALL-PO): 5.74 µM
- IC50 (SW 954): 4.85 µM
- IC50 (LB2241-RCC): > 8 µM
- IC50 (MZ7-mel): 7.54 µM
- IC50 (no-11): > 8 µM
- IC50 (MEG-01): 4.76 µM
- IC50 (SK-NEP-1): > 8 µM
- IC50 (NOS-1): 3.57 µM
- IC50 (GI-ME-N): 0.889 µM

Structure (SMILES): C#Cc1cccc(Nc2ncnc3cc(OCCOC)c(OCCOC)cc23)c1 [ERLOTINIB]
- IC50 (VA-ES-BJ): > 2 µM
- IC50 (DU-4475): > 2 µM
- IC50 (OCI-AML2): > 2 µM
- IC50 (HuTu80): > 2 µM
- IC50 (D-263MG): > 2 µM
- IC50 (JVM-2): > 2 µM
- IC50 (NB12): > 2 µM
- IC50 (HDLM-2): > 2 µM
- IC50 (MOLT-4): > 2 µM
- IC50 (SW 962): > 2 µM
- IC50 (SNU-5): > 2 µM
- IC50 (LB831-BLC): > 2 µM
- IC50 (EM-2): > 2 µM
- IC50 (LB996-RCC): 0.402 µM
- IC50 (TE-1): 1.4 µM
- IC50 (SK-N-DZ): > 2 µM
- IC50 (NCI-H1395): > 2 µM
- IC50 (ACN): > 2 µM
- IC50 (NMC-G1): > 2 µM
- IC50 (RS4-11): > 2 µM
- IC50 (UACC-257): > 2 µM
- IC50 (KS-1): > 2 µM
- IC50 (CP66-MEL): > 2 µM
- IC50 (NKM-1): > 2 µM
- IC50 (SH-4): > 2 µM
- IC50 (TE-8): > 2 µM
- IC50 (BT-474): > 2 µM
- IC50 (NTERA-2-cl-D1): > 2 µM
- IC50 (COLO-684): > 2 µM
- IC50 (TE-6): > 2 µM
- IC50 (MHH-PREB-1): > 2 µM
- IC50 697: > 2 µM
- IC50 (KARPAS-299): > 2 µM
- IC50 (CAS-1): > 2 µM
- IC50 (ALL-PO): > 2 µM
- IC50 (SW 954): > 2 µM
- IC50 (LB2241-RCC): > 2 µM
- IC50 (MZ7-mel): > 2 µM
- IC50 (no-11): > 2 µM
- IC50 (MEG-01): > 2 µM
- IC50 (SK-NEP-1): > 2 µM
- IC50 (NOS-1): > 2 µM
- IC50 (GI-ME-N): > 2 µM

Structure (SMILES): Nc1cccc2c1CN(C1CCC(=O)NC1=O)C2=O (configuration not stated) [LENALIDOMIDE]
- IC50 (VA-ES-BJ): > 5 µM
- IC50 (DU-4475): > 5 µM
- IC50 (TGBC24TKB): > 5 µM
- IC50 (OCI-AML2): > 5 µM
- IC50 (HuTu80): > 5 µM
- IC50 (MSTO-211H): > 5 µM
- IC50 (D-263MG): > 5 µM
- IC50 (JVM-2): > 5 µM
- IC50 (NB12): > 5 µM
- IC50 (HDLM-2): > 5 µM
- IC50 (MOLT-4): > 5 µM
- IC50 (MV4-11): > 5 µM
- IC50 (SW 962): > 5 µM
- IC50 (SNU-5): > 5 µM
- IC50 (LB831-BLC): > 5 µM
- IC50 (EM-2): > 5 µM
- IC50 (TE-1): > 5 µM
- IC50 (SK-N-DZ): > 5 µM
- IC50 (NCI-H1395): > 5 µM
- IC50 (ACN): > 5 µM
- IC50 (NMC-G1): > 5 µM
- IC50 (RS4-11): > 5 µM
- IC50 (UACC-257): > 5 µM
- IC50 (NCI-H1304): > 5 µM
- IC50 (KS-1): > 5 µM
- IC50 (CP66-MEL): > 5 µM
- IC50 (NKM-1): > 5 µM
- IC50 (NCI-H1155): > 5 µM
- IC50 (SH-4): > 5 µM
- IC50 (TE-8): > 5 µM
- IC50 (BT-474): > 5 µM
- IC50 (NTERA-2-cl-D1): > 5 µM
- IC50 (COLO-684): > 5 µM
- IC50 (TE-6): > 5 µM
- IC50 (MHH-PREB-1): > 5 µM
- IC50 697: > 5 µM
- IC50 (KARPAS-299): > 5 µM
- IC50 (CAS-1): > 5 µM
- IC50 (ALL-PO): > 5 µM
- IC50 (SW 954): > 5 µM
- IC50 (LB2241-RCC): > 5 µM
- IC50 (MZ7-mel): > 5 µM
- IC50 (no-11): > 5 µM
- IC50 (MEG-01): > 5 µM
- IC50 (SK-NEP-1): > 5 µM
- IC50 (NOS-1): > 5 µM
- IC50 (GI-ME-N): > 5 µM
